Measurements published in patent US11993640B2, “Treating inflammatory lung disease” (United States Government as represented by the Department …, priority 2019, dated 2024).
Non-standard residues stand in square brackets, D forms with d. Residues, ends and D or L forms follow the SMILES beside them. *: point of attachment. Phe(4-Cl) = N[C@@H](Cc1ccc(Cl)cc1)C(=O)O; hArg = N=C(N)NCCCC[C@H](N)C(=O)O; 12Ado = NCCCCCCCCCCCC(=O)O; Nle = CCCC[C@H](N)C(=O)O; Orn = NCCC[C@H](N)C(=O)O; Abu = CC[C@H](N)C(=O)O; PhAc = O=C(Cc1ccccc1)*

Columns and labels:
Assay type in all cases: cell-based, human
Details in all cases: 5 μM, 72 h; relative to MIA602 = 1; Table 3A
[1] = tested on: RT4 cells; experiment: In vitro cell viability, urothelial cancer RT4
Experimental: (§1) The inhibitory effects of the various synthesized GHRH antagonists were tested in cell proliferation assays in various human cancer cell lines including stomach cancer (KATOIII, N87), colon cancer (HT-29), urothelial cancer (J82, RT4), pancreatic cancer (PANC-1, CFPAC-1), prostatic cancer (PC3), breast cancer (MX-1, HCC1806), ovarian cancer (SK-OV-3, OVCAR-3) and lung cancer (HCC827, H460).
(§2) Cell culture. Human cancer cell lines including pancreatic (PANC-1 and CFPAC-1), lung (HCC827 and H460), stomach (NCI-N87 and KATOIII), urothelial (J82, RT4), prostatic (PC3), breast (MX-1 and HCC 1806), colorectal (HT-29), and ovarian (SK-OV-3 and OVCAR-3) were obtained from the American Type Culture Collection (ATCC) and cultured at 37° C. in a humidified 95% air/5% CO2 atmosphere in the medium recommended by ATCC.
(§3) In vitro cell viability. Cell viability was analyzed as follows: cancer cells including pancreatic (PANC-1 and CFPAC-1), lung (HCC827 and H460), stomach (NCI-N87 and KATOIII), urothelial (J82, RT4), prostatic (PC3) and breast (MX-1 and HCC 1806), colorectal (HT-29) and ovarian (SK-OV-3 and OVCAR-3) were grown on 96 well plates to ˜60% confluence, the cells were starved for 24 h in culture medium containing 0.5% FBS. Cells were then treated with GHRH antagonists MIA602 AVR compounds at concentrations of 1, 2.5 or 5 μM, or vehicle (0.1% DMSO) in quintuplicates for 72 hours. The medium was replaced every 48 hours. Cell viability was measured using CellTiter 96 aqueous one solution kit (Promega). Inhibitory effects of tested AVR compounds in comparison to that of MIA602 are presented as inhibitory potency.
(§4) Inhibitory effects of selected AVR compounds in comparison to that of MIA602 are presented as inhibitory potency (e.g., percentage of inhibition). […] The cell lines tested including lung cancer HCC827 (FIG. 2A), pancreatic cancer CFPAC-1 (FIG. 2B), stomach cancer N87 (FIG. 2C), colon cancer HT-29 (FIG. 2D), breast cancers MX-1 and HCC1806 (FIGS. 2E, F). […]

[2] = tested on: HCC1806 cells; experiment: In vitro cell viability, breast cancer HCC1806
Experimental: as §1, §2, §3
(§5) Inhibitory effects of selected AVR compounds in comparison to that of MIA602 are presented as inhibitory potency (e.g., percentage of inhibition). […] The cell lines tested including lung cancer HCC827 (FIG. 2A), pancreatic cancer CFPAC-1 (FIG. 2B), stomach cancer N87 (FIG. 2C), colon cancer HT-29 (FIG. 2D), breast cancers MX-1 and HCC1806 (FIGS. 2E, F). Based on the results of cell proliferation assay after cancer cells were treated with antagonist at concentration of 5 μM for 72H, the relative inhibitory potency of AVR antagonists in comparison to MIA-602 is summarized in Table 3 A and B. Over 60 AVR compounds were tested in 12 cancer cell lines.
(§6) Based on the results of cell proliferation assay after cancer cells were treated with antagonist at concentration of 5 µM for 72H, * at concentration of 2 µM for 72 H.

[3] = tested on: CFPAC-1 cells; experiment: In vitro cell viability, pancreatic cancer CFPAC-1
In short: (§7)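 Cells grown to ~60% confluence and serum-starved 24 h in 0.5% FBS, then exposed to antagonists at 5 μM (some at 2 μM) for 72 h in quintuplicate, with medium replaced every 48 h. Viability read by CellTiter 96 AQueous One (MTS). Values are inhibition relative to MIA602.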

[4] = tested on: MX-1 cells; experiment: In vitro cell viability, breast cancer MX-1
Experimental: as §1, §2, §3, §5, §6

[5] = tested on: NCI-N87 cells; experiment: In vitro cell viability (CellTiter 96), stomach cancer N87
Experimental: as §1, §2, §3, §5, §6

[6] = tested on: PC3 cells; experiment: In vitro cell viability, prostatic cancer PC3
Experimental: as §1, §2, §3, §4

[7] = tested on: HCC827 cells; experiment: In vitro cell viability, lung cancer HCC827
In short: as §7

[8] = tested on: KATOIII cells; experiment: In vitro cell viability, stomach cancer KATOIII
Experimental: as §1, §2, §3, §5

[9] = tested on: J82 cells; experiment: In vitro cell viability, urothelial cancer J82
Experimental: as §1, §2, §3, §5

[10] = tested on: PANC-1 cells; experiment: In vitro cell viability, pancreatic cancer PANC-1
Experimental: as §1, §2, §3, §5

| Compound | Relative inhibitory potency, Urothelial RT4 [1] | Relative inhibitory potency, Breast HCC1806 [2] | Relative inhibitory potency, Pancreatic CFPAC-1 [3] | Relative inhibitory potency, Breast MX-1 [4] | Relative inhibitory potency, Stomach N87 [5] | Relative inhibitory potency, Prostatic PC3 [6] | Relative inhibitory potency, Lung HCC827 [7] | Relative inhibitory potency, Stomach KATOIII [8] | Relative inhibitory potency, Urothelial J82 [9] | Relative inhibitory potency, Pancreatic Panc-1 [10] |
| --- | --- | --- | --- | --- | --- | --- | --- | --- | --- | --- |
| CCCC[C@H](NC(=O)[C@@H](NC(=O)[C@H](CC(=O)O)NC(=O)[C@H](CCC(N)=O)NC(=O)[C@H](CC(C)C)NC(=O)[C@H](CC(C)C)NC(=O)[C@H](CCCN)NC(=O)[C@H](Cc1c[nH]cn1)NC(=O)[C@H](C)NC(=O)[C@H](CO)NC(=O)[C@H](CC(C)C)NC(=O)[C@H](CCC(N)=O)NC(=O)[C@H](CC)NC(=O)[C@H](CC(C)C)NC(=O)[C@@H](NC(=O)[C@H](CCCCN)NC(=O)[C@H](CCCNC(=N)N)NC(=O)[C@H](Cc1ccc(OC)cc1)NC(=O)[C@H](CCCNC(=N)N)NC(=O)[C@H](C)NC(=O)[C@@H](NC(=O)[C@H](Cc1ccc(Cl)cc1)NC(=O)[C@@H](NC(=O)[C@H](C)NC(=O)[C@H](CC(=O)O)NC(=O)[C@@H](CCCNC(=N)N)NC(=O)[C@H](Cc1ccc(O)cc1)NC(=O)CCCCCCCCCCCNC(=O)Cc1ccccc1)[C@@H](C)CC)[C@@H](C)O)C(C)C)[C@@H](C)CC)C(=O)N[C@H](CCCNC(=N)N)C(=O)N[C@@H](CCCCNC(=N)N)C(N)=O [AVR-104, PhAC-Ada-Tyr-DArg-Asp-Ala-Ile-Cpa-Thr-Ala-Arg-Tyr(Me)-Arg-Lys-Val-Leu-Abu-Gln-Leu-Ser-Ala-His-Orn-Leu-Leu-Gln-Asp-Ile-Nle-DArg-Har-NH2] ({PhAc-12Ado}-Y[dR]DAI[Phe(4-Cl)]TARY(Me)RKVL[Abu]QLSAH[Orn]LLQDI[Nle][dR][hArg]-NH2) | 1.697 | 1.220 | 1.502 | 1.310 | 2.291 | 1.440 | 1.525 | 1.321 | 3.377 | 1.114 |
| CCCC[C@H](NC(=O)[C@@H](NC(=O)[C@H](CC(=O)O)NC(=O)[C@H](CCC(N)=O)NC(=O)[C@H](CC(C)C)NC(=O)[C@H](CC(C)C)NC(=O)[C@H](CCCN)NC(=O)[C@H](Cc1c[nH]cn1)NC(=O)[C@H](C)NC(=O)[C@H](CO)NC(=O)[C@H](CC(C)C)NC(=O)[C@H](CCC(N)=O)NC(=O)[C@H](CC)NC(=O)[C@H](CC(C)C)NC(=O)[C@@H](NC(=O)[C@H](CCCCN)NC(=O)[C@H](CCCNC(=N)N)NC(=O)[C@H](Cc1ccc(OC)cc1)NC(=O)[C@H](CCCNC(=N)N)NC(=O)[C@H](C)NC(=O)[C@@H](NC(=O)[C@H](Cc1ccc(Cl)cc1)NC(=O)[C@@H](NC(=O)[C@H](C)NC(=O)[C@H](CC(=O)O)NC(=O)[C@@H](CCCNC(=N)N)NC(=O)[C@H](Cc1ccc(O)cc1)NC(=O)CCCCCCCCCCCNC(=O)[C@H](N)Cc1ccccc1)[C@@H](C)CC)[C@@H](C)O)C(C)C)[C@@H](C)CC)C(=O)N[C@H](CCCNC(=N)N)C(=O)N[C@@H](CCCCNC(=N)N)C(N)=O [AVR-120, D-Phe-Ada-Tyr-DArg-Asp-Ala-Ile-Cpa-Thr-Ala-Arg-Tyr(Me)-Arg-Lys-Val-Leu-Abu-Gln-Leu-Ser-Ala-His-Orn-Leu-Leu-Gln-Asp-Ile-Nle-DArg-Har-NH2] (H-[dF][12Ado]Y[dR]DAI[Phe(4-Cl)]TARY(Me)RKVL[Abu]QLSAH[Orn]LLQDI[Nle][dR][hArg]-NH2; N-terminus assumed) | 1.611 | – | 1.617 | – | 2.339 | – | 1.423 | 1.271 | 4.841 | 1.306 |
